Results taken from patent US12357623B2, “Method for treating a disease or condition using a pyrazole compound or formulation thereof” (Rigel Pharmaceuticals, Inc., priority 2021, dated 2025).

Legend:
[1] = DVS isotherm of spray-dried formulation and crystalline compound I-1; type: physicochemical; settings: 25° C.; compared with the dispersion
Protocol: (§1) FIG. 1 is a dynamic vapor sorption (DVS) plot of percent change in mass versus target relative humidity (RH), illustrating the change in mass of one embodiment of the disclosed spray-dried formulation at 25° C. under various relative humidity conditions. The plot provides two isotherms: 1 is the sorption plot, illustrating the change in mass with increasing relative humidity steps; and 2 is the desorption plot, illustrating the change in mass with decreasing relative humidity steps.
as §1, with “FIG. 6” for “FIG. 1”, “a DVS” for “a dynamic vapor sorption (DVS)”, “relative humidity,” for “relative humidity (RH),”, “of a crystalline sample of compound I-1” for “of the disclosed spray-dried formulation”
FIGS. 1-10 provide structural and stability data concerning the spray-dried formulation (FIGS. 1-5) and a crystalline sample of compound I-1 (FIGS. 6-10). FIGS. 1 and 6 provide DVS isotherm plots for the spray-dried formulation and crystalline compound, respectively.

[2] = Rat AUC and percent bioavailability of compound I-1 after administration of potential prodrugs; set-up: species or system Rats; settings: in vivo, parent, iv 1 mg/kg, read-out: Rat AUClast of compound I-1

- change in mass when exposed to higher relative humidity (DVS) [1]: substantially smaller change in mass
- AUC(0-t) [2]: 1050 ng·h/mL
SMILES: CCO[C@H]1CC[C@H](n2cc(NC(=O)c3csc(-c4cn[nH]c4)n3)c(-c3nc(F)ccc3F)n2)CC1 [Compound I-1, N-(3-(3,6-difluoropyridin-2-yl)-1-((1r, 4r)-4-ethoxycyclohexyl)-1H-pyrazol-4-yl)-2-(1H-pyrazol-4-yl)thiazole-4-carboxamide]
